Data published in patent publication US4151279A (priority 1978, dated 1979).

Tests used:
Format in all cases: in vivo
Plasmopara viticola = assay: Preventive Grape Downy Mildew control (detached grape leaves); conditions: detached Vitis vinifera cultivar Emperor leaves, seven to nine days after inoculation
Experimental: Compounds Nos. 1, 4, 13 and 19 were tested for the control of the grape downy mildew organism Plasmopara viticola. Detached leaves, between 70 and 85 mm in diameter, of 7-week-old Vitis vinifera cultivar Emperor grape seedlings were used as hosts. The leaves were sprayed with a solution of the test compound in acetone. The sprayed leaves were dried, inoculated with a spore suspension of the organism, placed in a humid environmental chamber and incubated at 18°-22° C. and about 100% relative humidity. Seven to nine days after inoculation, the amount of disease control was determined. The percent disease control provided by a given test compound was based on the percent disease reduction relative to untreated check plants.

Alternaria solani = assay: Tomato Early Blight control (sprayed tomato seedlings); conditions: 288 h, 250-ppm solution, tomato (cultivar Bonny Best) seedlings, inoculated one day later, about 12 days, relative to untreated check plants
Experimental: Compounds of the invention were tested for the control of the Tomato Early Blight organism, Alternaria solani. Tomato (cultivar Bonny Best) seedlings of 6 to 7 weeks old were used. The tomato plants were sprayed with a 250-ppm solution of the test compound in an acetone-and-water solution containing a small amount of a non-ionic emulsifier. The sprayed plants were inoculated one day later with the organism, dried and maintained at 60-80% relative humidity for about 12 days. Percent disease control was based on the percent disease development on untreated check plants.

Botrytis cinerea = Botrytis cinerea control (preventive, harvested grape berries); conditions: 250-ppm solution; grape berries (cultivar Emperor); inoculated approximately one day later; 6-9 days after inoculation; relative to non-treated check
Experimental: Compounds Nos. 1, 8 and 11 were tested as preventive fungicides against Botrytis cinerea on harvested mature grape berries (cultivar Emperor) by the following procedure: 4 grape bunches (trimmed to approximately 50 berries) were sprayed with a 250-ppm solution of the test compound in a solution of water, acetone and a small amount of a non-ionic emulsifier. The sprayed grapes were inoculated approximately one day later with 2- to 3-week-old spores of Botrytis cinerea grown on potato dextrose agar plants. The rate of disease incidence was determined 6-9 days after inoculation, when disease symptoms are fully evident on non-treated check grapes. Infection is determined by actual count of the number of infected berries. The percent disease control provided by a test compound was calculated from the percentage disease reduction based on the non-treated check plants.

Ersiphe polygoni = assay: Powdery Mildew control (sprayed bean seedlings); conditions: 250-ppm solution; bean seedlings (cultivar Bountiful); inoculated one day after spray; about 10 days; relative to untreated check plants
Experimental: The powdery mildew test was made using bean seedlings (cultivar Bountiful) with well-developed primary leaves. The pathogen was Ersiphe polygoni. The bean seedlings were sprayed with a 250-ppm solution of the test compound in an acetone-water mixture containing a non-ionic emulsifier. The treated plants were inoculated one day after spray application of the test compound with the pathogen. The plants were then maintained in a greenhouse at 60-80% relative humidity and at a temperature of 20°-22° C. The rate of infection on the leaves were checked after about 10 days. The percent disease control provided by a given test compound was based on the disease reduction relative to untreated check plants.

Phytophthora infestans = assay: whole plant or invertebrate; conditions: in Solanum lycopersicum, 168 h, read-out: % Control
Septoria apii = conditions: celery (Utah) plants 11 weeks old; approximately 14 days; concentration not given; relative to untreated check plants

Compound | pest or weed control at 250 µg/mL (Alternaria solani) [%] | pest or weed control at 250 µg/mL (Phytophthora infestans) [%] | further results
CC1(C)OC(=O)CC(C(Cl)(Cl)Cl)N1OC(=O)Nc1ccccc1 (stereo not shown) [Compound 1] | 21 | – | % Control (Plasmopara viticola; 250 ppm): 23%; % Control (Botrytis cinerea): 23%; % Control (Ersiphe polygoni): 91%
CC1(C)OC(=O)CC(C(Cl)(Cl)Cl)N1OC(=O)Nc1ccccc1F (stereo not shown) [Compound 2] | 21 | – | % Control (Ersiphe polygoni): 75%
CC1(C)OC(=O)CC(C(Cl)(Cl)Cl)N1OC(=O)Nc1ccc(Cl)c(Cl)c1 (stereo not shown) [Compound 4] | – | 96 | % Control (Plasmopara viticola; 100 ppm): 60%
O=C1CC(C(Cl)(Cl)Cl)N(OC(=O)Nc2ccc(Cl)c(Cl)c2)C2(CCCCC2)O1 (stereo not shown) [Compound 5] | – | 56 | –
CC1(C)OC(=O)C(Cl)(Cl)C(C(Cl)(Cl)Cl)N1OC(=O)Nc1ccc(Cl)c(Cl)c1 (stereo not shown) [Compound 7] | 18 | 21 | –
CC1(c2ccccc2)OC(=O)C(Cl)(Cl)C(C(Cl)(Cl)Cl)N1OC(=O)Nc1ccccc1 (stereo not shown) [Compound 8, N-(phenylcarbamyloxy)-2-methyl-2-phenyl-4-trichloromethyl-5,5-dichloro-6-oxotetrahydro-1,3-oxazine] | 84 | 97 | % Control (Septoria apii): 61%; % Control (Botrytis cinerea): 100%
CC1(c2ccccc2)OC(=O)C(Cl)(Cl)C(C(Cl)(Cl)Cl)N1OC(=O)Nc1ccc(Cl)c(Cl)c1 (stereo not shown) [Compound 9] | – | 89 | –
CC1(C)OC(=O)C(Cl)(Cl)C(C(Cl)(Cl)Cl)N1OC(=O)Nc1cccc(Cl)c1 (stereo not shown) [Compound 10] | 84 | 68 | –
O=C(Nc1ccc(Cl)cc1)ON1C(C(Cl)(Cl)Cl)C(Cl)(Cl)C(=O)OC12CCCC2 (stereo not shown) [Compound 11] | 84 | 94 | % Control (Septoria apii): 42%; % Control (Botrytis cinerea): 78%
O=C(Nc1cccc(Cl)c1)ON1C(C(Cl)(Cl)Cl)C(Cl)(Cl)C(=O)OC12CCCC2 (stereo not shown) [Compound 12] | 33 | 68 | –
CC1(c2ccccc2)OC(=O)C(Cl)(Cl)C(C(Cl)(Cl)Cl)N1OC(=O)Nc1cccc(Cl)c1 (stereo not shown) [Compound 13] | – | 89 | % Control (Plasmopara viticola; 100 ppm): 73%
CC1(C)OC(=O)C(Cl)(Cl)C(C(Cl)(Cl)Cl)N1OC(=O)Nc1ccc(Cl)cc1 (stereo not shown) [Compound 14] | 27 | – | –
O=C(Nc1cccc(Cl)c1)ON1C(C(Cl)(Cl)Cl)C(Cl)(Cl)C(=O)OC1(c1ccccc1)c1ccccc1 (stereo not shown) [Compound 15] | 51 | – | % Control (Ersiphe polygoni): 11%
O=C(Nc1ccc(Cl)cc1)ON1C(C(Cl)(Cl)Cl)C(Cl)(Cl)C(=O)OC1(c1ccccc1)c1ccccc1 (stereo not shown) [Compound 16] | 68 | – | –
COc1ccc(NC(=O)ON2C(C(Cl)(Cl)Cl)C(Cl)(Cl)C(=O)OC2(C)C)cc1 (stereo not shown) [Compound 18] | – | 95 | –
Cc1cccc(C)c1NC(=O)ON1C(C(Cl)(Cl)Cl)C(Cl)(Cl)C(=O)OC1(C)C (stereo not shown) [Compound 21] | – | 88 | –
CC1(C)OC(=O)CC(C(Cl)(Cl)Cl)N1OC(=O)Nc1ccc(Cl)cc1 (stereo not shown) [Compound 24] | – | – | % Control (Ersiphe polygoni): 75%
CC(C)C1(C)OC(=O)C(Cl)(Cl)C(C(Cl)(Cl)Cl)N1OC(=O)Nc1ccccc1 (stereo not shown) [Compound 27] | – | 92 | –
CC(C)C1(C)OC(=O)CC(C(Cl)(Cl)Cl)N1OC(=O)Nc1ccc(Cl)c(Cl)c1 (stereo not shown) [Compound 28] | – | 23 | –
CCC1(C)OC(=O)CC(C(Cl)(Cl)Cl)N1OC(=O)Nc1ccc(Cl)cc1 (stereo not shown) [Compound 31] | 39 | 27 | % Control (Septoria apii): 64%
CC(C)C1(C)OC(=O)CC(C(Cl)(Cl)Cl)N1OC(=O)Nc1ccc(Cl)cc1 (stereo not shown) [Compound 32] | 23 | 56 | % Control (Ersiphe polygoni): 100%
Cc1ccc(NC(=O)ON2C(C(Cl)(Cl)Cl)CC(=O)OC2(C)C)cc1 (stereo not shown) [Compound 33] | – | 21 | % Control (Ersiphe polygoni): 96%
